# According to the Kinase Knowledgebase extract (Sharma et al. 2016):
# Biological target: MAPK14 (human) (UniProt Q16539)
# Assay: Assessment of MAPK14 Kinase Activity
# Sequence of MAPK14 (human) (Q16539 whole entry, looked up): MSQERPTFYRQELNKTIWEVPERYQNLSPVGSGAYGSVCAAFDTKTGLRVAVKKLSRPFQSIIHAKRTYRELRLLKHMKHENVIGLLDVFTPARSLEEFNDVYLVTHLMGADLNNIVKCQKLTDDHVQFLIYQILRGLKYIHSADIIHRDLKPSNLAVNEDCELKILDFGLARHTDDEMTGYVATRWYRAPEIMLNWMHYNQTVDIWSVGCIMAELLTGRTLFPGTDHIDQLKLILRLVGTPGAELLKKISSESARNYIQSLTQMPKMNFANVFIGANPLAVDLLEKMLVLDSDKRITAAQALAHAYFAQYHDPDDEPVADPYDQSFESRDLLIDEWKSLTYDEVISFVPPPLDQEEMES
row,SMILES,IC50 [nM]
1,CC(=O)N1CCN(C(=O)c2cc(C(C)(C)C)sc2NC(=O)Nc2ccc(C)c(-c3cccnc3)c2)CC1,< 100
2,COc1ccc(-c2cc(NC(=O)Nc3cc(C(C)(C)C)sc3C(=O)N3CCN(C)C(=O)C3(C)C)ccc2C)cn1,< 100
3,COc1ccc(-c2cc(NC(=O)Nc3sc(C(C)(C)C)cc3C(=O)N3CCNC(=O)C3(C)C)cc(F)c2C)cn1,< 100
4,Cc1ccc(NC(=O)Nc2cn(C(C)(C)C)nc2C(=O)N2CCN(C3CCN(C)C3)C(=O)C2(C)C)cc1-c1cccnc1 (configuration not stated),100 to 1000
5,Cc1ccc(NC(=O)Nc2sc(C(C)(C)C)cc2C(=O)N2CCN(C)C(=O)C2(C)C)cc1-c1ccc(OC(C)C)nc1,< 100
6,Cc1ccc(NC(=O)Nc2sc(C(C)(C)C)cc2C(=O)N2CCN(C)C(=O)C2(C)C)cc1N1C(=O)CN(C)C1=O,< 100
7,Cc1ccc(NC(=O)Nc2cn(C(C)(C)C)nc2C(=O)N2CCNC(=O)C2(C)C)cc1-c1ccc(CN2CCOCC2)nc1,< 100
8,Cc1nnc(-c2ccc(-c3cc(NC(=O)Nc4sc(C(C)(C)C)nc4C(=O)N4CCN(C)C(=O)C4(C)C)ccc3C)cn2)o1,< 100
9,Cc1ccc(NC(=O)Nc2sc(C(C)(C)C)cc2C(=O)N2CCNC(=O)C2(C)C)cc1-c1ccncc1,< 100
10,COc1ccc(-c2cc(NC(=O)Nc3sc(C(C)(C)C)cc3C(=O)N3CCNC(=O)C3(C)C)ccc2C)nc1,< 100
11,Cc1ccc(NC(=O)Nc2sc(C(C)(C)C)cc2C(=O)N2CCN(CCN(C)C)C(=O)C2(C)C)cc1-c1cccnc1,< 100
12,Cc1ccc(NC(=O)Nc2sc(C(C)(C)C)cc2C(=O)N2CCNC(=O)C2(C)C)cc1-c1cccnc1,< 100
13,Cc1ccc(NC(=O)Nc2sc(C(C)(C)C)cc2C(=O)N2CCNC(=O)C2(C)C)cc1-c1ccc(NCC(O)CO)nc1 (configuration not stated),< 100
14,Cc1ccc(NC(=O)Nc2sc(C(C)(C)C)cc2C(=O)N2CCNC(=O)CC2)cc1-c1cccnc1,< 100
15,CCC(C)(C)c1cc(C(=O)N2CCN(C)C(=O)C2(C)C)c(NC(=O)Nc2ccc(C)c(-c3ccc(CN4CCOCC4)nc3)c2)s1,< 100
16,Cc1ncc(NC(=O)Nc2sc(C(C)(C)C)cc2C(=O)N2CCN(C)C(=O)C2(C)C)cc1C#CC1CC1,< 100
17,COC(=O)CN1CCN(C(=O)c2cc(C(C)(C)C)sc2NC(=O)Nc2ccc(C)c(-c3ccncc3)c2)C(C)(C)C1=O,< 100
18,Cc1ccc(NC(=O)Nc2sc(C(C)(C)C)cc2C(=O)N2CCN(C)C(=O)C2(C)C)cc1-c1ccc(-n2ccnc2)nc1,< 100
19,CC(C)(C)c1cc(C(=O)N2CCNC(=O)C2(C)C)c(NC(=O)Nc2cccc(-c3ccc(OCCCN4CCOCC4)nc3)c2)s1,< 100
20,CCN1CCN(C(=O)c2sc(C(C)(C)C)cc2NC(=O)Nc2ccc(C)c(-c3ccc(CN4CCOCC4)nc3)c2)C(C)(C)C1=O,< 100
21,Cc1ccc(NC(=O)Nc2sc(C(C)(C)C)cc2C(=O)N2CCNC(=O)CC2)cc1-c1cnc(N2CCOCC2)nc1,< 100

# Continued, values first:
row,IC50 [nM],SMILES
1,< 100,Cc1ccc(-c2ccc(N3CCOCC3)cn2)cc1NC(=O)Nc1cc(C(C)(C)C)sc1C(=O)N1CCNC(=O)C1(C)C
2,< 100,Cc1ccc(NC(=O)Nc2sc(C(C)(C)C)cc2C(=O)N2CCNC(=O)C2(C)C)cc1-c1ccc(N(C)C)nc1
3,< 100,C#Cc1ccc(-c2cc(NC(=O)Nc3sc(C(C)(C)C)cc3C(=O)N3CCNC(=O)C3(C)C)ccc2C)cn1
4,< 100,Cc1ccc(NC(=O)Nc2sc(C(C)(C)C)cc2C(=O)N2CCN(C)C(=O)C2(C)C)cc1-c1ccc(C(C)O)nc1 (configuration not stated)
5,< 100,Cc1ccc(NC(=O)Nc2sc(C(C)(C)C)cc2C(=O)N2CCNC(=O)C2(C)C)cc1-c1ccc(OCCN2CCOCC2)nc1
6,< 100,CCc1ccc(-c2cc(NC(=O)Nc3cn(C4(C)CCCC4)nc3C(=O)N3CCNC(=O)C3(C)C)ccc2C)cn1
7,< 100,COc1ccc(-c2cc(C)cc(NC(=O)Nc3sc(C(C)(C)C)cc3C(=O)N3CCNC(=O)C3(C)C)c2)cn1
8,< 100,COCCNC(=O)c1ccc(-c2cc(NC(=O)Nc3sc(C(C)(C)C)cc3C(=O)N3CCN(C)C(=O)C3(C)C)ccc2C)cn1
9,< 100,Cc1ccc(NC(=O)Nc2sc(C(C)(C)C)cc2C(=O)N2CCNC(=O)C2(C)C)cc1-c1ccc(OCCN2CCCCC2)nc1
10,< 100,Cc1ccc(NC(=O)Nc2cc(C(C)(C)C)sc2C(=O)N2CCNC(=O)C2(C)C)cc1-c1ccc(N2CCOCC2)nc1
11,< 100,CC(C)(C)c1cc(C(=O)N2CCNC(=O)C2(C)C)c(NC(=O)Nc2cccc(-c3ccc(OCCCc4ccccn4)nc3)c2)s1
12,< 100,Cc1ccc(NC(=O)Nc2sc(C(C)(C)C)cc2C(=O)N2CCNC(=O)C2(C)C)cc1C#CCN1CCN(C)CC1
13,< 100,Cc1ccc(NC(=O)Nc2sc(C(C)(C)C)cc2C(=O)N2CCN(C)C(=O)C2(C)C)cc1-c1ccc(CN2CCCC2)nc1
14,< 100,Cc1ncc(NC(=O)Nc2sc(C(C)(C)C)cc2C(=O)N2CCNC(=O)C2(C)C)cc1-c1ccc(N2CCOCC2)nc1
15,< 100,COc1ccc(-c2cc(NC(=O)Nc3sc(C(C)(C)C)cc3C(=O)N3CCNC(=O)C3(C)C)c(F)cc2C)cn1
16,< 100,CCNC(=O)c1ccc(-c2cc(NC(=O)Nc3cc(C(C)(C)C)sc3C(=O)N3CCN(C)C(=O)C3(C)C)ccc2C)cn1
